In ChEMBL document CHEMBL1146053, “Discovery and optimization of a novel series of liver X receptor-alpha agonists” (Bioorg Med Chem Lett, 2006):

Target: T1, Oxysterols receptor LXR-alpha (Homo sapiens, UniProt Q13133)
T1 sequence (Q13133 whole entry): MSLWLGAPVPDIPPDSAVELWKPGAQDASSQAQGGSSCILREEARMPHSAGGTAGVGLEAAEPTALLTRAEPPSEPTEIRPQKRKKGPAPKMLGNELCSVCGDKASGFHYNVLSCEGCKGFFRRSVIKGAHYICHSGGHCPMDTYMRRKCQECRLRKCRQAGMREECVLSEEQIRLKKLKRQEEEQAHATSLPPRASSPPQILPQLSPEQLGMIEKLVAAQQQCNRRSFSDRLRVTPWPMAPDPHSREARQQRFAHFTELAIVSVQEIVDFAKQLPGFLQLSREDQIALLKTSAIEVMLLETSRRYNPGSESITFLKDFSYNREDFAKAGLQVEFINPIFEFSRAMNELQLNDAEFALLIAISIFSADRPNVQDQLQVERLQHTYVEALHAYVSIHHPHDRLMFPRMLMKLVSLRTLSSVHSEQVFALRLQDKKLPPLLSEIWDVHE
Assay: Activity against LXR alpha transiently transfected in HEK293 cells
Assay type: cell-based
Settings: not given

Row | Structure (SMILES) | EC50
1 | COC(c1ccc(N(C)S(=O)(=O)c2ccccc2)cc1)(C(F)(F)F)C(F)(F)F | 1000 nM
2 | CN(c1cccc(C(O)(C(F)(F)F)C(F)(F)F)c1)S(=O)(=O)c1ccccc1 | 1000 nM
3 | CN(c1ccc(C(O)(C(F)(F)F)C(F)(F)F)c(Cl)c1)S(=O)(=O)c1ccccc1 | > 5000 nM
4 | O=S(=O)(c1ccccc1)N1CCc2cc(C(O)(C(F)(F)F)C(F)(F)F)ccc21 | 50 nM
5 | CN(c1ccc(C(O)(C(F)(F)F)C(F)(F)F)cc1)S(=O)(=O)c1cccc(C#N)c1 | 20 nM
6 | CN(c1ccc(C(O)(C(F)(F)F)C(F)(F)F)cc1)S(=O)(=O)c1ccc(C#N)cc1 | 2000 nM
7 | CN(C(=O)c1ccccc1)c1ccc(C(O)(C(F)(F)F)C(F)(F)F)cc1 | 100 nM
8 | CN(Cc1ccc(C(O)(C(F)(F)F)C(F)(F)F)cc1)S(=O)(=O)c1ccccc1 | 3000 nM
9 | O=S(=O)(Nc1ccc(C(O)(C(F)(F)F)C(F)(F)F)cc1)c1ccccc1 | 4000 nM
10 | CN(c1ccc(C(O)(C(F)(F)F)C(F)(F)F)cc1)S(=O)(=O)c1ccccc1C#N | 700 nM
11 | C[C@H](CC[C@@H]1OC1(C)C)[C@H]1CC[C@H]2[C@@H]3CC=C4C[C@@H](O)CC[C@]4(C)[C@H]3CC[C@]12C [24(S),25-EPOXYCHOLESTEROL] | 500 nM

Results, then the molecule that gave them:

Row | EC50 | Structure (SMILES)
12 | 100 nM | CN(c1ccccc1)S(=O)(=O)c1ccc(C(O)(C(F)(F)F)C(F)(F)F)cc1
13 | 200 nM | CN(C(=O)c1ccc(C(O)(C(F)(F)F)C(F)(F)F)cc1)c1ccccc1
14 | > 5000 nM | CN(c1ccc(C(O)C(F)(F)F)cc1)S(=O)(=O)c1ccccc1 (stereo unspecified)
15 | 100 nM | CC(C)COC(=O)N(C)c1ccc(C(O)(C(F)(F)F)C(F)(F)F)cc1
16 | 600 nM | CN(c1ccc(C(O)(C(F)(F)F)C(F)(F)F)cc1)S(=O)(=O)c1cccs1
17 | 80 nM | CN(c1ccc(C(O)(C(F)(F)F)C(F)(F)F)cc1)S(=O)(=O)c1cccc(S(N)(=O)=O)c1
18 | 30 nM | CN(c1ccc(C(O)(C(F)(F)F)C(F)(F)F)cc1)S(=O)(=O)c1cccc(-c2ccccc2)c1
19 | 8 nM | O=S(=O)(c1ccccc1)N(c1ccc(C(O)(C(F)(F)F)C(F)(F)F)cc1)C1CCCC1
20 | 200 nM | CN(c1ccc(C(O)(C(F)(F)F)C(F)(F)F)cc1Cl)S(=O)(=O)c1ccccc1
21 | 10 nM | O=S(=O)(c1ccccc1)N1CCCCc2cc(C(O)(C(F)(F)F)C(F)(F)F)ccc21
22 | 40 nM | CC(C)CN(c1ccc(C(O)(C(F)(F)F)C(F)(F)F)cc1)S(=O)(=O)c1cccs1
23 | 30 nM | O=S(=O)(c1ccccc1)N1CCCc2cc(C(O)(C(F)(F)F)C(F)(F)F)ccc21
24 | 100 nM | O=S(=O)(c1ccccc1)N1CCOc2cc(C(O)(C(F)(F)F)C(F)(F)F)ccc21
25 | 5000 nM | CN(c1ccc(C(C)(O)C(F)(F)F)cc1)S(=O)(=O)c1ccccc1 (stereo unspecified)

Test system: not listed separately
Assay: AUC in mice at 5 mg/kg, po
Assay type: ADME, organism-based
Design: dose 5 mg/kg, route oral
Settings: mouse, plasma

Row | AUC | Structure (SMILES)
26 | 3420 ng·h/mL | O=S(=O)(c1ccccc1)N(CC(F)(F)F)c1ccc(C(O)(C(F)(F)F)C(F)(F)F)cc1 [T091317]

Test system: not listed separately
Assay: Half life in mice at 5 mg/kg, po
Assay type: ADME, organism-based
Design: dose 5 mg/kg, route oral
Settings: mouse, in vivo

Row | half-life | Structure (SMILES)
27 | 3 h | O=S(=O)(c1ccccc1)N(CC(F)(F)F)c1ccc(C(O)(C(F)(F)F)C(F)(F)F)cc1 [T091317]

Test system: not listed separately
Assay: AUC in dog at 5 mg/kg, po
Assay type: ADME, organism-based, Canis lupus familiaris
Design: dose 5 mg/kg, route oral
Settings: plasma

Row | AUC | Structure (SMILES)
28 | 7300 ng·h/mL | O=S(=O)(c1ccccc1)N(CC(F)(F)F)c1ccc(C(O)(C(F)(F)F)C(F)(F)F)cc1 [T091317]

Test system: not listed separately
Assay: Half life in dog at 5 mg/kg, po
Assay type: ADME, organism-based, Canis lupus familiaris
Design: dose 5 mg/kg, route oral
Settings: in vivo

Row | half-life | Structure (SMILES)
29 | 5.8 h | O=S(=O)(c1ccccc1)N(CC(F)(F)F)c1ccc(C(O)(C(F)(F)F)C(F)(F)F)cc1 [T091317]

Test system: not listed separately
Assay: AUC in Sprague-Dawley rat at 5 mg/kg, po
Assay type: ADME, organism-based
Design: dose 5 mg/kg, route oral
Settings: plasma

Row | AUC | Structure (SMILES)
30 | 3200 ng·h/mL | CC(C)CN(c1ccc(C(O)(C(F)(F)F)C(F)(F)F)cc1)S(=O)(=O)c1cccs1
31 | 5920 ng·h/mL | O=S(=O)(c1ccccc1)N(CC(F)(F)F)c1ccc(C(O)(C(F)(F)F)C(F)(F)F)cc1 [T091317]
